pIC50: −log10 of the molar value.
How the values were obtained:
Assay type in all cases: biochemical
[1] = target: B-Raf (Homo sapiens, UniProt P15056); assay: Kinase activity assay, B-Raf; conditions: read-out: activity toward kinase B-Raf, IC50
[2] = target: Fms (Homo sapiens, UniProt P07333); assay: Kinase activity assay, Fms; conditions: read-out: activity toward kinase Fms, IC50
[3] = target: B-Raf V600E (Homo sapiens, UniProt P15056, V600E); assay: Kinase activity assay, B-Raf V600E; conditions: read-out: activity toward kinase B-Raf V600E, IC50
Sequence of B-Raf V600E (P15056 whole entry V600E): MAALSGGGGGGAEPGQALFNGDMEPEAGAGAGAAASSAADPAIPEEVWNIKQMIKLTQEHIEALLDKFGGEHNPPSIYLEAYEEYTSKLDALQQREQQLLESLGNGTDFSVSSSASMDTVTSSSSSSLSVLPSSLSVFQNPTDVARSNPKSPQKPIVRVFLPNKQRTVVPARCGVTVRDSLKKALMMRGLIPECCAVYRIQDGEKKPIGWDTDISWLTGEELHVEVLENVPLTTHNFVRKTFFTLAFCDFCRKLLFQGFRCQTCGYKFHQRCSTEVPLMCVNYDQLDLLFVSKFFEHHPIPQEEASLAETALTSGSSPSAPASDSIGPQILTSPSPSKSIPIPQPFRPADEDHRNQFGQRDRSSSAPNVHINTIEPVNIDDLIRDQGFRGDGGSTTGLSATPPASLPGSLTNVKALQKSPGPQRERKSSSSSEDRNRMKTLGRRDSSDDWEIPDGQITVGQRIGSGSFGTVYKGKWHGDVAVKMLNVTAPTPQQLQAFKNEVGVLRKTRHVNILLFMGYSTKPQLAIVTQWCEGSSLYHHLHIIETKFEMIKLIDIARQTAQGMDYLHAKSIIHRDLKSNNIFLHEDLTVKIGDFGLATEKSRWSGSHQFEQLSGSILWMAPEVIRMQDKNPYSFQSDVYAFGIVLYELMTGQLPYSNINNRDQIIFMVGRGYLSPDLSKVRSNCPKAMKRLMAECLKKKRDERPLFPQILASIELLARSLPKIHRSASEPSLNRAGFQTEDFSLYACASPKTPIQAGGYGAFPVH

[4] = target: C-Raf (Homo sapiens, UniProt P04049); assay: Kinase activity assay, C-Raf; conditions: read-out: activity toward kinase C-Raf, IC50
Sequence of C-Raf (P04049 whole entry): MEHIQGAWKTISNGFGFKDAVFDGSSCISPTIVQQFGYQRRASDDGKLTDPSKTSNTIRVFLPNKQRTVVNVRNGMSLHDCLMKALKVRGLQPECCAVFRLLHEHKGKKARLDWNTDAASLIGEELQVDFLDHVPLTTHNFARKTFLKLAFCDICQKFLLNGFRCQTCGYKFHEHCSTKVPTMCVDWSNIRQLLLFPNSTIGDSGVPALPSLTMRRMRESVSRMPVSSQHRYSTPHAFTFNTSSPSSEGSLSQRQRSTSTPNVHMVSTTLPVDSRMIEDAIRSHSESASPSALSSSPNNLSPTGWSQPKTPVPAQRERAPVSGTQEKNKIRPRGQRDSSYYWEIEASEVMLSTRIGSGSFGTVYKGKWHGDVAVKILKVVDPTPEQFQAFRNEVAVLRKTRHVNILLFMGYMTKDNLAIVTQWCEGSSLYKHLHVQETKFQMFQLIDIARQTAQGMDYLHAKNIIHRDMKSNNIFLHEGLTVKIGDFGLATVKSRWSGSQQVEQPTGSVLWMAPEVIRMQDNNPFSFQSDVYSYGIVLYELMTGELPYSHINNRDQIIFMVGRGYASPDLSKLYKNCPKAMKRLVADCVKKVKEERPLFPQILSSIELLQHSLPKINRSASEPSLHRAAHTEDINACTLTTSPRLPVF

Measured: pIC50

Sequence of Fms (P07333 20-972): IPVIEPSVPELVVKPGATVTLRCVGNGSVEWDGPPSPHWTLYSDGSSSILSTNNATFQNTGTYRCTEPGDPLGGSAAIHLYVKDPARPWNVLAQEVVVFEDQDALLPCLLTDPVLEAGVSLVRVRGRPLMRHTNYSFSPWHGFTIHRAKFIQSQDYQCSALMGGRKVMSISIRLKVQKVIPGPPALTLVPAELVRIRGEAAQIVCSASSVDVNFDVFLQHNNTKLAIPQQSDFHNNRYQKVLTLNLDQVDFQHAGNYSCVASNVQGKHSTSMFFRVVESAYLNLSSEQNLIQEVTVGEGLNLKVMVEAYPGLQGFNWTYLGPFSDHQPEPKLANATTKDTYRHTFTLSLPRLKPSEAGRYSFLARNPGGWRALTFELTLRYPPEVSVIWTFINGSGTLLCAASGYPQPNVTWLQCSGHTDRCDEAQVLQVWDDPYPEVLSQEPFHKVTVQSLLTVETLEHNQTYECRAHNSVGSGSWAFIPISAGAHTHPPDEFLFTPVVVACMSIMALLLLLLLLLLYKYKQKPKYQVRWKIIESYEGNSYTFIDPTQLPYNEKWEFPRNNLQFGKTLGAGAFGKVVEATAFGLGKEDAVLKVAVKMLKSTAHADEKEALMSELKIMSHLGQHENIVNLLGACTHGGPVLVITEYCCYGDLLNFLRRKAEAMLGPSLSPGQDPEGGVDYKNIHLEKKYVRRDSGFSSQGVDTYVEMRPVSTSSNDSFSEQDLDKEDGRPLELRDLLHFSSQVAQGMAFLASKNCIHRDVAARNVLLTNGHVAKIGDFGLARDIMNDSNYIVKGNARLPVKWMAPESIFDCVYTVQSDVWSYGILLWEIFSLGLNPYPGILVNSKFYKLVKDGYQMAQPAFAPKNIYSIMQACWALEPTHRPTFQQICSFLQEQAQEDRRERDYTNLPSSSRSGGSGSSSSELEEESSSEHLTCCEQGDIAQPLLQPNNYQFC
Sequence of B-Raf (P15056 whole entry): as the sequence (P15056 whole entry V600E) above, with E600V counted along it

O=C(c1c(F)ccc(NS(=O)(=O)c2cccnc2)c1F)c1c[nH]c2ncncc12 [Compound P-0066, Pyridine-3-sulfonic acid [2,4-difluoro-3-(7H-pyrrolo[2,3-d]pyrimidine-5-carbonyl)-phenyl]-amide]
≥ 5.00: all assays above

Source: patent publication US8153641B2, “Compounds and methods for kinase modulation, and indications therefor” (Plexxikon Inc., priority 2008, dated 2012)
